Read-outs that look alike come from different tables or passages of the source. Non-standard residues stand in square brackets, D forms with d. No end group written: not given here. *: point of attachment. Biotin = O=C1N[C@H]2[C@H](CS[C@H]2CCCCC(=O)*)N1
Experiments:
[1] = target: E. coli DnaK fragment aa583-615 (D-E helix hinge) (Escherichia coli, UniProt P0A6Y8); assay: Fluorescence polarization with synthetic DnaK fragment aa583-615; format: binding; details: Tris HCl at pH 8.0; for binding to E. coli D-E helix hinge region aa583-615 at high concentration: 128 μM fragment
Experimental: The binding of the synthetic DnaK fragments to their fluorescein-labeled pyrrhocoricin counterparts was also assessed in solution, by fluorescence polarization [Lundblad, J. R. et al, (1996) Mol. Endocrinol. 10: 607-612]. For these experiments, the unlabeled peptides were serially diluted in PBS (pH 7.4) or 0.1 M Tris-HCl (pH 8.0) containing 0.1 M ethylene-diamine-tetraacetic acid (EDTA) in 50 μL final volume in 6×50 mm disposable glass borosilicate tubes. The fluoresceinated peptides were added to each tube in a 50 μL aliquot to a final concentration of 1 nM and tubes were incubated at 37° C. for 5 minutes. The extent of fluorescence anisotropy was measured on a Beacon 2000 fluorescence polarization instrument (PanVera, Madison, Wis.) and calculated as millipolarization values. The filters used were 485 nm excitation and 535 nm emission with 3 nm band width. Non-linear curve fitting was done by using a dose-response logistical transition [y=a0+a1/(1+x/a2)^a^3] and the Levenberg-Marquardt Algorithm within the SlideWrite software package. The provided Kd value (a2 coefficient) was calculated by the program.
To quantitatively characterize the pyrrhocoricin—D-E helix interaction, the complete binding curves were measured for E. coli DnaK fragments aa583-615 and aa588-615, both of SEQ ID NO: 10.

[2] = target: blocked E. coli DnaK fragment aa591-615 (Escherichia coli, UniProt P0A6Y8); format: binding
[3] = target: T1, S. aureus DnaK 554-585 (D-E helix fragment) (Staphylococcus aureus, UniProt P45554); assay: Fluorescence polarization with S. aureus DnaK D-E helix fragment; format: binding; details: Tris HCl at pH 8.0
T1 sequence (P45554 554-585 limits assumed): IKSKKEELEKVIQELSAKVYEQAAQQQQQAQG

[4] = tested on: β-galactosidase activities of live E. coli TG-1 cells; format: cell-based
[5] = tested on: alkaline phosphatase activities of live E. coli TG-1 cells; format: cell-based
recombinant E. coli DnaK = target: T2, recombinant E. coli DnaK (Escherichia coli, UniProt P0A6Y8); assay: EnzChek ATPase assay, recombinant DnaK; format: biochemical; details: 50 molar equivalents of peptide; 22° C., 30 min; UV absorbance at 360 nm
T2 construct: purchased StressGen, Victoria, Canada
Text: To determine whether the proline-rich antibacterial peptides that were predicted to bind to DnaK between the peptide binding pocket and the C-terminus would interfere with ATPase activity, a recently developed continuous spectrophotometric (colorimetric) ATPase activity assay [Rieger, C. E. et al, (1997) Anal. Biochem. 246: 86-95] was used. This assay uses using 2-amino-6-mercapto-7-methylpurine ribonucleoside (MESG)/purine nucleoside phosphorylase reaction to detect the released inorganic phosphate (EnzChek ATPase determination kit from Molecular Probes, Eugene, USA). Assays were performed in 500 μL tubes in duplicates in a total volume of 125 μL containing 20 mM tris(hydroxymethyl)amino-ethane (Tris)-HCl, pH 7.6, 1 mM MgCl2, […] (except in assaying the baseline), 5 μg of DnaK (recombinant DnaK protein from StressGen,Victoria, Canada) and 50 molar equivalents of the particular peptide, MESG and the purine nucleoside phosphorylase recommended by the manufacturer. After incubation at 22° C. for 30 min, 100 μL of the reaction mixture was transferred to a quartz cuvette and the ultraviolet (UV) absorbance at 360 nm was measured. The assay was run in a miniaturized form to increase the concentration and therefore the enzymatic activity of DnaK. In a larger, standard format the ATPase activity of DnaK without peptide addition was 6 pmol/μg/min, in line with the published data of 4 pmol/μg/min [Liberek, K. et al, (1991) Proc. Natl. Acad. Sci. USA 88: 2874-2878].

E. coli D22 = details: Otvos et al, 2000, Protein Science; cited from earlier work
DnaK = DnaK (Escherichia coli, UniProt P0A6Y8); details: 1 μg DnaK; biotin-labeled peptide
Hsp70 = Hsp70 (Homo sapiens, UniProt P0DMV8); details: nitrocellulose membrane-bound protein; 10 μg/ml peptide
GroEL = GroEL (Escherichia coli, UniProt P0A6F5); details: nitrocellulose membrane-bound protein; 10 μg/ml peptide
E. coli LPS = details: nitrocellulose membrane-bound LPS
LPS from S. typhimurium = details: nitrocellulose membrane-bound LPS
[6] = target: E. coli DnaK aa583-615, hinge region between helices D and E (Escherichia coli, UniProt P0A6Y8); details: 5 μg fragment; 10 μg/mL biotin-labeled peptide
Text: (§1) A control strip was stained with amido black 10B to verify the presence of all DnaK fragments on the nitrocellulose sheet.

[7] = target: E. coli DnaK aa397-439, conventional peptide binding pocket (Escherichia coli, UniProt P0A6Y8); details: non-specific binding; 10 μg/mL biotin-labeled peptide
Text: as §1

[8] = tested on: E. coli strains (including TG-1, or K-12)
[9] = Hoffmann et al, 1999; cited from earlier work
[10] = peptide 32 μg/mL, live E. coli TG-1, three independent assays
[11] = peptide 32 μg/mL, live E. coli TG-1, four independent assays

T2 sequence (P0A6Y8 whole entry): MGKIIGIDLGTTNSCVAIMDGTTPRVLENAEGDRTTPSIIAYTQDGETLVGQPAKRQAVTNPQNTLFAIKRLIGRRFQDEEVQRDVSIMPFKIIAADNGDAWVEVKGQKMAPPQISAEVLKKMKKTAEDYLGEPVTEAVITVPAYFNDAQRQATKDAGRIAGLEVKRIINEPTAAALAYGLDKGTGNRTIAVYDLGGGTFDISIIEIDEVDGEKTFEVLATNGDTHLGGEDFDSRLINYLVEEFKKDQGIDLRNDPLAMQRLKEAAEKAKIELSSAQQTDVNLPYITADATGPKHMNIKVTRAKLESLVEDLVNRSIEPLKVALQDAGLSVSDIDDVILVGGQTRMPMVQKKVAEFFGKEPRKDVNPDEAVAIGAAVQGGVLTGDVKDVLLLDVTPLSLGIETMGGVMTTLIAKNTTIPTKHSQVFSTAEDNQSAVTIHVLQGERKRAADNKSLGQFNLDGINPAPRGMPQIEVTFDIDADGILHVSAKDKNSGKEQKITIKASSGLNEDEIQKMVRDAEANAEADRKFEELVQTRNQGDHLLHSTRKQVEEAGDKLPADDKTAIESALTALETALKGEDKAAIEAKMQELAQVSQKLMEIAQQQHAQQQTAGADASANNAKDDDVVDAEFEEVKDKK
Chain of E. coli DnaK fragment aa583-615 (D-E helix hinge) (P0A6Y8 584-616): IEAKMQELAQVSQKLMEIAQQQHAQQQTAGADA
Chain of GroEL (P0A6F5 2-548 limits assumed): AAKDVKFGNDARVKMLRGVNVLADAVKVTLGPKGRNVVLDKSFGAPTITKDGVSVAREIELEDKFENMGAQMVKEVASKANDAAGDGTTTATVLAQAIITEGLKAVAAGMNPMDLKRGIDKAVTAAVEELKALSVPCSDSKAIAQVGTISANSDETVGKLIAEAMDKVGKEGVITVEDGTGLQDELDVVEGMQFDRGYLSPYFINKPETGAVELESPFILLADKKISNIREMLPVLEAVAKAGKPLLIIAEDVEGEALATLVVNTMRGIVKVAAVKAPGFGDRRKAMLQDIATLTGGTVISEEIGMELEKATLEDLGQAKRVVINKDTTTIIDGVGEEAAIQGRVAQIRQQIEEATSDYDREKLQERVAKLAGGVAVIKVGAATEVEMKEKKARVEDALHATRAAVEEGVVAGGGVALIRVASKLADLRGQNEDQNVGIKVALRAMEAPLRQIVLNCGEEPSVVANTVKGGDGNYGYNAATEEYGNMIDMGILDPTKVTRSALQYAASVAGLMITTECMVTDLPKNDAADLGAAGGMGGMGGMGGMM
Chain of DnaK (P0A6Y8 whole entry): as the sequence (P0A6Y8 whole entry) above
Chain of blocked E. coli DnaK fragment aa591-615 (P0A6Y8 592-616 limits assumed): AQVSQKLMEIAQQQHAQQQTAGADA
Chain of E. coli DnaK aa397-439, conventional peptide binding pocket (P0A6Y8 397-439): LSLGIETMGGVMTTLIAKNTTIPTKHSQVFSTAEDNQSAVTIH
Chain of E. coli DnaK aa583-615, hinge region between helices D and E (P0A6Y8 584-616 limits assumed): as the sequence (P0A6Y8 584-616) above
Chain of Hsp70 (P0DMV8 whole entry): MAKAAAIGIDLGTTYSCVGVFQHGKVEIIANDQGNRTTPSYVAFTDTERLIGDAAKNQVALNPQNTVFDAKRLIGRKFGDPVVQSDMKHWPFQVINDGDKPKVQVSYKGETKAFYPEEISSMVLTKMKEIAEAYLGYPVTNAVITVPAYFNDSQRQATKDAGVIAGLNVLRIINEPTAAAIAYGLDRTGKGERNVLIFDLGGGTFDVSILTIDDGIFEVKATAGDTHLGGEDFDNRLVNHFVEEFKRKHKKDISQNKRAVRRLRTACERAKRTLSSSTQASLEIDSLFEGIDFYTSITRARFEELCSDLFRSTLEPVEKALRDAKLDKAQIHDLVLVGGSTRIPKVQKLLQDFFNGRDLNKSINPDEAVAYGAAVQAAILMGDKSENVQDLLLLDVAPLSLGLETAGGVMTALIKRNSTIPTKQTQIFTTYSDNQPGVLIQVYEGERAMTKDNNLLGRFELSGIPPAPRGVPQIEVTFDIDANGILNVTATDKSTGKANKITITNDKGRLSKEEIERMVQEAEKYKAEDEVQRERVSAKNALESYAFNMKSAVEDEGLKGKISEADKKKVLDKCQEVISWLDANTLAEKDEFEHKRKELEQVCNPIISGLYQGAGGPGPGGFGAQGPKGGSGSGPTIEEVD

Substance: N—F-drosocin: drosocin with fluorescein label attached at the N-terminus (fluorescein-KGKPRPYSPRPTSHPRPIRV)
- binding to E. coli D-E helix hinge region aa583-615 at high concentration [1]: some binding
- binding to blocked E. coli DnaK fragment aa591-615 [2]: failed to bind
- binding to S. aureus D-E helix fragment [3]: failed to bind

Substance: Conantokin G
- Inhibition of enzymatic activity after 1 hour (%) β-Galactosidase [4]: (−10) ± 10%
- Inhibition of enzymatic activity after 1 hour (%) Alkaline Phosphatase [5]: (−3) ± 23%

Substance: NTDGSTDYGILQINSR
- binding to E. coli D-E helix hinge region aa583-615 ([1]; labeled peptide 1 nM): failed to bind

Substance: N—F-apidaecin: apidaecin with fluorescein label attached at the N-terminus
- binding to E. coli D-E helix hinge region aa583-615 at high concentration [1]: some binding
- binding to S. aureus D-E helix fragment [3]: failed to bind

Substance: Cecropin A: membrane-active antimicrobial peptide; purchased from Bachem (KWKLFKKIEKVGQNIRDGIIKAGPAVAVVGQATQIAK)
- effect on ATPase activity of recombinant DnaK (recombinant E. coli DnaK): did not influence

Substance: Magainin 2: antibacterial peptide that kills bacteria by disintegrating the membrane; from Bachem (GIGKFLHSAKKFGKAFVGEIMNS)
- Inhibition of enzymatic activity after 1 hour (%) β-Galactosidase [4, 10]: (−50) ± 55%
- Inhibition of enzymatic activity after 1 hour (%) Alkaline Phosphatase [5, 11]: (−23) ± 38%
- effect on ATPase activity of recombinant DnaK (recombinant E. coli DnaK): did not influence

Substance: D-pyrrhocoricin: SEQ ID NO: 3 with all amino acids in the D configuration; inactive analog ([dV][dD][dK]G[dS][dY][dL][dP][dR][dP][dT][dP][dP][dR][dP][dI][dY][dN][dR][dN])
- Inhibition of enzymatic activity after 1 hour (%) β-Galactosidase [4, 10]: (−4) ± 43%
- Inhibition of enzymatic activity after 1 hour (%) Alkaline Phosphatase [5, 11]: (−6) ± 16%
- effect on ATPase activity of recombinant DnaK (recombinant E. coli DnaK): negligible effect
- killing of E. coli D22 (E. coli D22): completely inactive

Substance: Biotin-KVDKGSYLPRPTPPRPIYNRN [biotin-K-pyrrhocoricin]
- binding to DnaK on the peptide blot (DnaK): bound strongly
- binding to Hsp70 on the peptide blot (Hsp70): very weak peptide binding
- binding to GroEL on the peptide blot (GroEL): very weak peptide binding
- binding to E. coli LPS on Western-blot (E. coli LPS): did not label LPS bands
- binding to S. typhimurium LPS on Western-blot (LPS from S. typhimurium): did not label LPS bands
- dot blot binding to D-E helix hinge fragment [6]: bound
- dot blot binding to peptide-binding pocket fragment [7]: similarly bound
- concentration range killing E. coli strains [8]: submicromolar range

Substance: native glycosylated drosocin: native drosocin glycopeptide with a disaccharide in the mid-chain position (GKPRPYSPRPTSHPRPIRV; also: O-glycosylated disaccharide in mid-chain position; UniProt P36193 22-40, looked up)
- antibacterial activity when injected into mice [9]: no antibacterial activity

Source: patent US20060240494A1, “Biocidal molecules, macromolecular targets and methods of production and use” (priority 2000, published 2006)
